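A five-concentration, 48-hour dose response in 96-well plates underlies each endpoint, interpolated linearly between surrounding concentrations. Definition used: TGI = concentration required for complete inhibition of growth.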
Assays:
Assay in all cases: NCI anticancer screen, dose series, 48 h
K-562 leukemia = test system: K-562 leukemia
DMS 114 small cell lung = test system: DMS 114 small cell lung
KM20L2 colon = test system: KM20L2 colon
IGROV1 ovarian = test system: IGROV1 ovarian
SK-MEL-2 melanoma = test system: SK-MEL-2 melanoma
SF-539 CNS = test system: SF-539 CNS
SNB-78 CNS = test system: SNB-78 CNS
A549 NSCLC = test system: A549 NSCLC
HOP-62 NSCLC = test system: HOP-62 NSCLC
HCT-116 colon = test system: HCT-116 colon
MDA-MB-435 = test system: MDA-MB-435

Structure (SMILES): NS(=O)(=O)c1ccc(NC(=O)CC(=O)Nc2ccc(S(N)(=O)=O)cc2)cc1
- TGI (K-562 leukemia): > 100 µM
- TGI (DMS 114 small cell lung): > 100 µM
- TGI (KM20L2 colon): > 100 µM
- TGI (IGROV1 ovarian): > 100 µM
- TGI (SK-MEL-2 melanoma): > 100 µM
- TGI (SF-539 CNS): > 100 µM
- TGI (SNB-78 CNS): > 100 µM
- TGI (A549 NSCLC): > 100 µM
- TGI (HOP-62 NSCLC): > 100 µM
- TGI (HCT-116 colon): > 100 µM

Structure (SMILES): O=C(CCCNC(=O)OCc1ccccc1)OCc1ccc2c(c1)C(=O)c1ccccc1C2=O
- TGI (K-562 leukemia): > 100 µM
- TGI (DMS 114 small cell lung): > 100 µM
- TGI (KM20L2 colon): > 100 µM
- TGI (IGROV1 ovarian): 99 µM
- TGI (SK-MEL-2 melanoma): > 100 µM
- TGI (SF-539 CNS): 57.8 µM
- TGI (SNB-78 CNS): > 94.3 µM
- TGI (A549 NSCLC): > 100 µM
- TGI (HOP-62 NSCLC): > 93.4 µM
- TGI (HCT-116 colon): > 100 µM

Structure (SMILES): CCc1ccc(/C(C)=N/NC(N)=S)cc1
- TGI (K-562 leukemia): > 100 µM
- TGI (DMS 114 small cell lung): > 100 µM
- TGI (KM20L2 colon): > 100 µM
- TGI (IGROV1 ovarian): > 100 µM
- TGI (SK-MEL-2 melanoma): > 100 µM
- TGI (SF-539 CNS): > 100 µM
- TGI (SNB-78 CNS): > 100 µM
- TGI (A549 NSCLC): > 100 µM
- TGI (HOP-62 NSCLC): > 100 µM
- TGI (HCT-116 colon): > 100 µM

Structure (SMILES): N#CCC(=O)N/N=C1/C(=O)NC(=O)C(=O)C1c1nc2ccccc2s1 (stereo unspecified)
- TGI (K-562 leukemia): > 100 µM
- TGI (DMS 114 small cell lung): > 100 µM
- TGI (KM20L2 colon): > 100 µM
- TGI (IGROV1 ovarian): > 100 µM
- TGI (SK-MEL-2 melanoma): > 100 µM
- TGI (SF-539 CNS): > 100 µM
- TGI (SNB-78 CNS): > 100 µM
- TGI (A549 NSCLC): > 100 µM
- TGI (HOP-62 NSCLC): > 100 µM
- TGI (HCT-116 colon): > 100 µM

Structure (SMILES): CC(=O)NCCCCCCNC(C)=O
- TGI (K-562 leukemia): > 10000 µM
- TGI (DMS 114 small cell lung): > 10000 µM
- TGI (KM20L2 colon): > 10000 µM
- TGI (MDA-MB-435): > 10000 µM
- TGI (IGROV1 ovarian): > 10000 µM
- TGI (SK-MEL-2 melanoma): > 10000 µM
- TGI (SF-539 CNS): > 10000 µM
- TGI (SNB-78 CNS): > 10000 µM
- TGI (A549 NSCLC): > 9660 µM
- TGI (HOP-62 NSCLC): > 10000 µM
- TGI (HCT-116 colon): > 10000 µM

Structure (SMILES): CN(C)c1nc(N(C)C)n2nc(-c3ccccc3[N+](=O)[O-])nc2n1
- TGI (K-562 leukemia): > 100 µM
- TGI (DMS 114 small cell lung): > 100 µM
- TGI (KM20L2 colon): > 100 µM
- TGI (IGROV1 ovarian): > 100 µM
- TGI (SK-MEL-2 melanoma): > 100 µM
- TGI (SF-539 CNS): > 100 µM
- TGI (SNB-78 CNS): > 100 µM
- TGI (A549 NSCLC): > 100 µM
- TGI (HOP-62 NSCLC): > 100 µM
- TGI (HCT-116 colon): 89.2 µM

Source: PubChem BioAssay (NCI)
